US20040019026A1, “Compounds useful for treating hypertriglyceridemia” (priority 2000, published 2004)
Where “and” joins values, the source holds several entries; their conditions need not be identical. Identical values can stand only once.

Tests used:
[1] = test system: patients with rheumatoid arthritis; assay: Oral fluasterone in rheumatoid arthritis patients, obese vs non-obese: triglycerides (Example 6); type: in vivo, human
Procedure: In this clinical trial oral fluasterone (1200 mg) was administered daily to patients with rheumatoid arthritis for 3 to 12 weeks. Nine patients had baseline triglyceride levels 200 mg/dL. These patients were divided into obese (BMI>30) and non-obese (BMI<30) groups. […] However, the conclusion would be the same without the addition of this patient.
The baseline levels was the mean value of week −2, 0 and the treatment levels were the last values obtained (week 3 to 12) for each patient. The obese patients has a BMI of 36.6±4.0 and the non-obese a BMI of 27.1±1.5.

Female CD-1 mice = assay: Dexamethasone-induced thymic and splenic atrophy, anti-glucocorticoid effect (Example 4); type: in vivo; conditions: for Spleen Wt. / Thymus Wt.: no DEX
Procedure: Female CD-1 mice were obtained from Charles River Laboratories, Kingston, N.Y. at 43-45 days of age. The mice were housed five per cage in plastic shoebox cages on corn cob bedding in the Fels Animal Facility at 72°±2° F. with 50%±5% humidity and twelve hours of alternate light and darkness. The mice had ad libitum access to Purina chain 5015 and acidified water for pretreatment.
Six days later, the mice were weighed, earmarked and redistributed into six groups for treatment: 1) a control group, 2) a group treated with dexamethasone (“DEX”), a glucocorticoid which induces thymic and splenic atrophy, 3) a group treated with 200 mg/kg 16α-fluoro-5-androsten-17-one (hereinafter “drug”), 4) a group treated with 400 mg/kg of, 5) a group treated with dexamethasone and 200 mg/kg drug and 6) a group treated with dexamethasone and 400 mg/kg drug. The treatment in the groups were as follows and were conducted simuitaneously.
The control group was intubated with 0.2 mL of sesame oil for three days. On the third day after commencement of the intubation, the mice were injected subcutaneously with 0.05 mL of absolute ethanol one hour after the last treatment with sesame oil.
The second group was intubated with 0.2 mL of sesame oil for three days. On the third day after the commencement of the intubation, the mice were injected subcutaneously with 1.6 mg of dexamethasone dissolved in 0.05 mL of absolute ethanol approximately one hour after the last treatment with sesame oil.
The third and fourth groups were intubated with 200 mg/Kg and 400 mg/Kg drug, respectively, suspended in 0.2 mL of sesame oil for three days. After commencement of the intubation, the mice were injected subcutaneously with 0.05 mL of absolute ethanol approximately one hour after the last treatment with sesame oil.
The fifth and sixth groups were intubated with 200 mg/kg and 400 mg/kg, respectively, of drug, suspended in 0.2 mL of sesame oil for three days. On the third day after commencement of the intubation, the mice were injected subcutaneously with 1.6 mg of dexamethasome dissolved in 0.05 mL of absolute ethanol approximately one hour after the last treatment with sesame oil.
All of the mice were sacrificed by an overdose of CO2 approximately 24 hours after the injection of ethanol (first, third and fourth groups) or approximately 24 hours after injection with dexamethasone (second, fifth and sixth groups). The mice were weighed and the thymus was excised, cleaned of adventia, rinsed in phosphate-buffered saline (P.B.S.), blotted and weighed. The spleen was also excised, cleaned, rinsed, blotted and weighed.

[2] = test system: patients with Metabolic Syndrome; assay: Phase I/II buccal tablet study: triglyceride and HDL levels, incl. obese subset (Examples 7 and 8); type: in vivo, human
Procedure: The study was a phase I/II randomized, double blind, dose-ranging, placebo-controlled, evaluation of the safety, tolerance, and activity on lipid laboratory markers after transmucosal (buccal) administration of two dose levels (20 mg or 80 mg) of fluasterone (16α-fluoro-5-androsten-17-one) compared to placebo in patients with Metabolic Syndrome. Study treatment consisted of eight weeks of buccal tablet administration of fluasterone or placebo control and subsequent follow-up for two weeks.
After patient consent had been obtained, patients were screened for eligibility into the study. Following informed consent, screening and laboratory testing, patients entered a six-week dietary run-in phase during which they followed a Step II AHA diet, and discontinued all lipid-lowering agents. At 4 weeks into the dietary run-in phase, qualifying lipid and endocrine laboratory measurements were performed. After the run-in phase, patients were randomized to receive either fluasterone or placebo control. Patients received fluasterone or placebo daily for 8 weeks. Patients were followed for an additional 2 weeks for total study duration of 16 weeks. The dose levels evaluated in this study were either 20 mg or 80 mg buccal tablets of fluasterone or placebo control that were formulated to dissolve between the lower gingival surfaces of the jaw and buccal mucosa of the cheek pouch.
Fluasterone or placebo equivalent was administered as either one or four buccal tablets. Each buccal tablet contained 16-α-fluoro-5-androsten-17-one, mannitol, crospovidone, magnesium stearate, polyethylene glycol 3350, silica gel and sodium lauryl sulfate. Patients were instructed to ingest water prior to placing the buccal tablets in their mouth. The tablets were held in the mouth without disturbance for approximately 10 minutes. Patients were instructed not to chew or swallow the tablets and not drink or eat for 30 minutes after study drug administration.
The study consisted of a 6-week dietary run-in phase during which they followed a Step II AHA diet and discontinued all lipid-lowering agents. After the run-in phase, patients who qualified based on lipid and endocrine laboratory measurements at the qualifying visit (week −2) were randomized to receive fluasterone or placebo control. Patients received fluasterone or placebo control daily for 8 weeks. Patients were followed for an additional 2 weeks to collect adverse events and an additional lipid profile for total study duration of 16 weeks.
Blood samples were collected for lipid determinations at the qualifying visit (week −2), at study day 1, and at weeks 2, 4, 6, 8, and 10.
There were 8 patients treated with 80 mg fluasterone, 9 with 20 mg fluasterone, 3 patients with 80 mg placebo, and 4 patients with 20 mg placebo.
The triglyceride level in the 80 mg fluasterone group declined from baseline by 34% at week […] and by 35% at week […]. In the combined placebo group at the corresponding time points the triglyceride levels increased by 6% and 7% respectively.

[3] = 200 mg/kg drug intubated for three days
[4] = 400 mg/kg drug intubated for three days
[5] = 20 mg buccal daily, Week 2, 4, 6, & 8
[6] = 80 mg buccal daily, Week 2, 4, 6, & 8
[7] = obese subset, 80 mg buccal daily, Week 2, 4, 6, and 8
[8] = obese subset, 80 mg buccal daily, Week 8
[9] = obese subset, 80 mg buccal, Baseline (−2, 0)

With `C[C@]12CCCCC1=CC[C@@H]1[C@@H]2CC[C@]2(C)C(=O)[C@H](F)C[C@@H]12` [fluasterone, 16α-fluoro-5-androsten-17-one] the “Decline in triglyceride level, obese vs non-obese” value ([1]; 1200 mg oral daily, p=0.0113, group effect) was “significantly greater decline in triglyceride level than the non-obese”, the “Triglycerides (mean ± S.D.)” value ([1]; Non-obese (BMI<30), baseline (mean of week −2, 0)) was 310 mg/dL and 330 ± 163 (10) mg/dL and the “Triglycerides (mean ± S.D.)” value ([1]; Non-obese (BMI<30), treatment 1200 mg oral daily, last value (week 3 to 12)) was 248 ± 89.8 (5) mg/dL. The “Triglycerides (mean ± S.D.)” value ([1]; Obese (BMI>30), baseline (mean of week −2, 0)) was 232 mg/dL and 231 ± 57.1 (10) mg/dL, the “Triglycerides (mean ± S.D.)” value ([1]; Obese (BMI>30), treatment 1200 mg oral daily, last value (week 3 to 12)) was 135 ± 12.1 (5) mg/dL and the “Spleen Wt.” value (Female CD-1 mice; [3]) was 103.5 ± 9.2 mg. The “Thymus Wt.” value (Female CD-1 mice; [3]) was 65.0 ± 5.8 mg, the “Effect on dexamethasone-induced thymic and splenic atrophy” value (Female CD-1 mice; 400 mg/kg) was “significantly reduced dexamethasone-induced thymic and splenic atrophy” and the “Spleen Wt.” value (Female CD-1 mice; [4]) was 129.4 ± 17.9 mg. For the same compound, the “Thymus Wt.” value (Female CD-1 mice; [4]) was 74.3 ± 7.1 mg, the HDL [2, 5] was 32.6 ± 6.4 (36) mg/dL and the Triglycerides [2, 5] was 523 ± 311 (36) mg/dL. For the same compound, the HDL ([2]; 20 mg buccal daily, Week 8) was 33.3 ± 6.5 (9) mg/dL, the Triglycerides ([2]; 20 mg buccal daily, Week 8) was 538 ± 285 (9) mg/dL and the HDL ([2]; 20 mg buccal, Baseline (−2, 0)) was 31.6 ± 6.2 (18) mg/dL. The Triglycerides ([2]; 20 mg buccal, Baseline (−2, 0)) was 507 ± 192 (18) mg/dL, the HDL [2, 6] was 41.1 ± 8.1 (32) mg/dL and the Triglycerides [2, 6] was 342 ± 111 (32) mg/dL. The HDL ([2]; 80 mg buccal daily, Week 8) was 41.6 ± 9.4 (8) mg/dL, the Triglycerides ([2]; 80 mg buccal daily, Week 8) was 292 ± 92.4 (8) mg/dL and the “Effect on HDL level” value ([2]; 80 mg buccal dose, all patients) was “no apparent decline in HDL level”. The HDL ([2]; 80 mg buccal, Baseline (−2, 0)) was 40.8 ± 8.9 (16) mg/dL, the Triglycerides ([2]; 80 mg buccal, Baseline (−2, 0)) was 455 ± 157 (16) mg/dL and the “Reduction of mean triglyceride level compared to baseline” value ([2]; 80 mg buccal, mean 8-week level) was 36%. For the same compound, the “Reduction of mean triglyceride level compared to baseline” value ([2]; 80 mg buccal, mean of week 2, 4, 6, & 8) was “at least 25%”, the “Effect on HDL levels” value ([2]; obese subset, 80 mg buccal) was “no decline in HDL levels from baseline” and the HDL [2, 7] was 40.3 ± 6.3 (20) mg/dL. The Triglycerides [2, 7] was 313 ± 93.7 (20) mg/dL, the HDL [2, 8] was 40.3 ± 4.6 (5) mg/dL and the Triglycerides [2, 8] was 307 ± 106 (5) mg/dL. The HDL [2, 9] was 39.2 ± 7.3 (10) mg/dL, the Triglycerides [2, 9] was 472 ± 169 (10) mg/dL and the “Decline of triglyceride level from baseline” value ([2]; obese subset, 80 mg buccal, week 2, 4, 6, and 8, p=0.0368 vs combined placebo) was 34%. For the same compound, the “Decline of triglyceride level from baseline” value ([2]; obese subset, 80 mg buccal, week 8) was 35%.
